From patent US4321265A, “7α-Methoxycephalosporins” (Toyama Chemical Co., Ltd., priority 1977, dated 1982)
Values after ≈ are worked out from the molar mass of the structure shown.

Legend:
Test in all cases: Minimum inhibitory concentration (MIC), Heart Infusion agar
Type in all cases: cell-based
[1] = system: Acinetobacter caloaceticus A-6; conditions: A6; Acinetobacter caloaceticus A-6; 10^6 cells/ml; 20 hours, 37° C.; read-out: minimum inhibitory concentration (MIC)
Method: (§1) Antibacterial activities of the representative compounds (Ib) of the 7α-methoxycephalosporins according to this invention are shown in Table 1. [drawing 20]
(§2) The figures given in Table 1 represent the minimum inhibitory concentration (MIC in mcg/ml) of each compound, which was determined according to the method described in "Chemotherapy (Society of Chemotherapy, Japan), Vol. 16, 98-99 (1968)": A culture obtained by cultivating the test bacterium in a Heart Infusion broth (Eiken Kagaku Co.) was inoculated into a Heart Infusion agar medium (Eiken Kagaku Co.). After 20 hours of the incubation at 37° C., the growth of the bacterium was inspected to determine the minimum inhibitory concentration (MIC in mcg/ml). The inoculation rate of the bacterium was 10^4 cells/plate (10^6 cells/ml).
(§3) (1) Minimum inhibitory concentration (MIC in mcg/ml).

[2] = system: Citrobacter N-7; conditions: N7; Citrobacter N-7; 10^6 cells/ml; 20 hours, 37° C.; read-out: minimum inhibitory concentration (MIC)
Method: as §1, §2, §3

[3] = system: E. coli NIHJ; conditions: Escherichia coli; E. coli NIHJ; 10^6 cells/ml; 20 hours, 37° C.; read-out: minimum inhibitory concentration (MIC)
Method: as §1, §2, §3

[4] = system: Ent. cloacae IID977; conditions: Enterobacter cloacae; Ent. cloacae IID977; 10^6 cells/ml; 20 hours, 37° C.; read-out: minimum inhibitory concentration (MIC)
Method: as §1, §2, §3

[5] = system: K. pneumoniae Y-50; conditions: Klebsiella pneumoniae, Y50; K. pneumoniae Y-50; 10^6 cells/ml; 20 hours, 37° C.; read-out: minimum inhibitory concentration (MIC)
Method: as §1, §2, §3

[6] = system: Klebsiella spp. Y-72; conditions: SPP.Y72; Klebsiella spp. Y-72; 10^6 cells/ml; 20 hours, 37° C.; read-out: minimum inhibitory concentration (MIC)
Method: as §1, §2, §3

[7] = system: Prot. vulgaris GN-76; conditions: Proteus vulgaris, GN76; Prot. vulgaris GN-76; 10^6 cells/ml; 20 hours, 37° C.; read-out: minimum inhibitory concentration (MIC)
Method: as §1, §2, §3

[8] = system: Ps. aeruginosa IFO-3445; conditions: Pseudomonas aeruginosa, IFO3445; Ps. aeruginosa IFO-3445; 10^6 cells/ml; 20 hours, 37° C.; read-out: minimum inhibitory concentration (MIC)
Method: as §1, §2, §3

[9] = system: Ps. aeruginosa S-68; conditions: Pseudomonas aeruginosa, S68; Ps. aeruginosa S-68; 10^6 cells/ml; 20 hours, 37° C.; read-out: minimum inhibitory concentration (MIC)
Method: as §1, §2, §3

[10] = system: S. aureus F-19 (Penicillinase-producing bacterium); conditions: Staphylococcus aureus; S. aureus F-19; 10^6 cells/ml; 20 hours, 37° C.; read-out: minimum inhibitory concentration (MIC)
Method: as §1, §2, §3

[11] = system: Ser. marcescens IID620; conditions: Serratia marcescens; Ser. marcescens IID620; 10^6 cells/ml; 20 hours, 37° C.; read-out: minimum inhibitory concentration (MIC)
Method: as §1, §2, §3

[12] = system: Ser. marcescens W-8; conditions: Serratia marcescens, W8; Ser. marcescens W-8; 10^6 cells/ml; 20 hours, 37° C.; read-out: minimum inhibitory concentration (MIC)
Method: as §1, §2, §3

[13] = system: Ser. marcescens W-35; conditions: Serratia marcescens, W35, 20 h, Ser. marcescens W-35; 10^6 cells/ml; 20 hours, 37° C. (Table 1); read-out: minimum inhibitory concentration (MIC)
Method: as §1
as §2, with “The inoculation rate of the bacterium was 10^4 cells/plate (10^6 cells/ml).” left out
as §3

[14] = system: C. freundii GN-346 (Cephalosporinase-producing bacterium); conditions: Citrobacter freundii, GN346; C. freundii GN-346; 10^6 cells/ml; 20 hours, 37° C.; read-out: minimum inhibitory concentration (MIC)
Method: as §1, §2, §3

Structure (SMILES) | MIC [1] [µg/mL] | MIC [2] [µg/mL] | MIC [3] [µg/mL] | MIC [4] [µg/mL] | MIC [5] [µg/mL] | MIC [6] [µg/mL] | MIC [7] [µg/mL] | MIC [8] [µg/mL] | MIC [9] [µg/mL] | MIC [10] [µg/mL] | MIC [11] [µg/mL] | MIC [12] [µg/mL] | MIC [13] [µg/mL] | MIC [14] [µg/mL]
CCN1CCN(C(=O)NC(C(=O)N[C@]2(OC)C(=O)N3C(C(=O)O)=C(CSc4nnnn4CC(N)=O)CS[C@@H]32)c2cccs2)C(=O)C1=O (stereo partly drawn) | 6.25 (≈ 8.82 µM) | 3.13 (≈ 4.42 µM) | ≤ 0.1 | 12.5 (≈ 17.6 µM) | 0.39 (≈ 0.55 µM) | 1.56 (≈ 2.2 µM) | 0.78 (≈ 1.1 µM) | 12.5 (≈ 17.6 µM) | 12.5 (≈ 17.6 µM) | 3.13 (≈ 4.42 µM) | 0.2 (≈ 0.282 µM) | 25 (≈ 35.3 µM) | 12.5 (≈ 17.6 µM) | –
CCN1CCN(C(=O)NC(C(=O)N[C@]2(OC)C(=O)N3C(C(=O)O)=C(CSc4nnn(CCN(C)C)n4)CS[C@@H]32)c2cccs2)C(=O)C1=O (stereo partly drawn) | 25 (≈ 34.6 µM) | 3.13 (≈ 4.33 µM) | ≤ 0.1 | 25 (≈ 34.6 µM) | 0.78 (≈ 1.08 µM) | – | 3.13 (≈ 4.33 µM) | 50 (≈ 69.2 µM) | – | 6.25 (≈ 8.65 µM) | 0.2 (≈ 0.277 µM) | 50 (≈ 69.2 µM) | – | 25 (≈ 34.6 µM)
CCN1CCN(C(=O)NC(C(=O)N[C@]2(OC)C(=O)N3C(C(=O)O)=C(CSc4nncs4)CS[C@@H]32)c2cccs2)C(=O)C1=O (stereo partly drawn) | 12.5 (≈ 18.7 µM) | 12.5 (≈ 18.7 µM) | ≤ 0.1 | 100 (≈ 150 µM) | 0.39 (≈ 0.584 µM) | 1.56 (≈ 2.34 µM) | 0.78 (≈ 1.17 µM) | 25 (≈ 37.4 µM) | 25 (≈ 37.4 µM) | 6.25 (≈ 9.36 µM) | 0.78 (≈ 1.17 µM) | 25 (≈ 37.4 µM) | 12.5 (≈ 18.7 µM) | 100 (≈ 150 µM)
C=Cn1nnnc1SCC1=C(C(=O)O)N2C(=O)[C@](NC(=O)C(NC(=O)N3CCN(CC)C(=O)C3=O)c3cccs3)(OC)[C@H]2SC1 (stereo partly drawn) | 12.5 (≈ 18.4 µM) | 3.13 (≈ 4.62 µM) | ≤ 0.1 | 25 (≈ 36.9 µM) | 0.39 (≈ 0.575 µM) | 6.25 (≈ 9.22 µM) | 0.78 (≈ 1.15 µM) | 25 (≈ 36.9 µM) | 12.5 (≈ 18.4 µM) | 3.13 (≈ 4.62 µM) | 0.2 (≈ 0.295 µM) | 25 (≈ 36.9 µM) | 12.5 (≈ 18.4 µM) | 12.5 (≈ 18.4 µM)
CCN1CCN(C(=O)NC(C(=O)N[C@]2(OC)C(=O)N3C(C(=O)O)=C(CSc4nnnn4CC(C)=NO)CS[C@@H]32)c2cccs2)C(=O)C1=O (stereo partly drawn) | 12.5 (≈ 17.3 µM) | 6.25 (≈ 8.65 µM) | ≤ 0.1 | 25 (≈ 34.6 µM) | 0.78 (≈ 1.08 µM) | 6.25 (≈ 8.65 µM) | 0.78 (≈ 1.08 µM) | 25 (≈ 34.6 µM) | 12.5 (≈ 17.3 µM) | 3.13 (≈ 4.33 µM) | 0.2 (≈ 0.277 µM) | 50 (≈ 69.2 µM) | 25 (≈ 34.6 µM) | 50 (≈ 69.2 µM)

Other lines, results leading:

MIC [1] [µg/mL] | MIC [2] [µg/mL] | MIC [3] [µg/mL] | MIC [4] [µg/mL] | MIC [5] [µg/mL] | MIC [6] [µg/mL] | MIC [7] [µg/mL] | MIC [8] [µg/mL] | MIC [9] [µg/mL] | MIC [10] [µg/mL] | MIC [11] [µg/mL] | MIC [12] [µg/mL] | MIC [13] [µg/mL] | MIC [14] [µg/mL] | Structure (SMILES)
12.5 (≈ 17.3 µM) | 6.25 (≈ 8.65 µM) | ≤ 0.1 | 25 (≈ 34.6 µM) | 0.78 (≈ 1.08 µM) | 12.5 (≈ 17.3 µM) | 1.56 (≈ 2.16 µM) | 50 (≈ 69.2 µM) | 25 (≈ 34.6 µM) | 6.25 (≈ 8.65 µM) | 0.39 (≈ 0.54 µM) | 50 (≈ 69.2 µM) | 50 (≈ 69.2 µM) | 25 (≈ 34.6 µM) | CCN1CCN(C(=O)NC(C(=O)N[C@]2(OC)C(=O)N3C(C(=O)O)=C(CSc4nnnn4CCN(C)C)CS[C@@H]32)c2cccs2)C(=O)C1=O (stereo partly drawn)
12.5 (≈ 18 µM) | 3.13 (≈ 4.51 µM) | ≤ 0.1 | 50 (≈ 72 µM) | 0.78 (≈ 1.12 µM) | 3.13 (≈ 4.51 µM) | 0.78 (≈ 1.12 µM) | 12.5 (≈ 18 µM) | 12.5 (≈ 18 µM) | 6.25 (≈ 9 µM) | 0.2 (≈ 0.288 µM) | 50 (≈ 72 µM) | 6.25 (≈ 9 µM) | 25 (≈ 36 µM) | CCN1CCN(C(=O)NC(C(=O)N[C@]2(OC)C(=O)N3C(C(=O)O)=C(CSc4nnnn4CCN)CS[C@@H]32)c2cccs2)C(=O)C1=O (stereo partly drawn)
25 (≈ 35.3 µM) | 6.25 (≈ 8.83 µM) | ≤ 0.1 | 50 (≈ 70.6 µM) | 0.39 (≈ 0.551 µM) | 6.25 (≈ 8.83 µM) | 0.78 (≈ 1.1 µM) | 25 (≈ 35.3 µM) | 25 (≈ 35.3 µM) | 6.25 (≈ 8.83 µM) | 0.2 (≈ 0.283 µM) | 50 (≈ 70.6 µM) | 25 (≈ 35.3 µM) | 25 (≈ 35.3 µM) | CCN1CCN(C(=O)NC(C(=O)N[C@]2(OC)C(=O)N3C(C(=O)O)=C(CSc4nnnn4CC(C)=O)CS[C@@H]32)c2cccs2)C(=O)C1=O (stereo partly drawn)
